Test results as given in patent US8372176B2, “Metal complexes comprising a ligand derived from 2-aryl-2-hydroxyacetic acid and a divalent or trivalent metal cation, and their use” (Clariant Specialty Fine Chemicals (France), priority 2006, dated 2013).

How the values were obtained:
[1] = Dissolution of FeCl3 with ligand in aqueous phase at neutral or basic pH; Fe in filtrate by ICP-OES; format: physicochemical
Experimental: (§1) The invention is illustrated without implied limitation by the following examples, in which the amounts of metals in solution were measured by ICP-OES (Inductively Coupled Plasma-Optical Emission Spectroscopy).
(§2) In the examples which follow, the term “theoretical % by weight of metal in solution” is understood to mean the ratio, expressed as percentage, of the total weight of metal initially introduced into the reaction medium to the weight of the filtrate recovered and analysed.
(§3) 4.92 g (0.025 mol) of OHMNa are dissolved in 19.17 ml of water. 20.27 g of an aqueous solution comprising 6.76 g of FeCl3 hexahydrate (0.025 mol) are added over 15 min while maintaining the temperature of the reaction medium at approximately 20° C. The pH of the solution is adjusted to 7 by addition of a 50% by weight aqueous sodium hydroxide solution (5.87 g). The mixture is subsequently stirred at ambient temperature for 24 h. After filtering and washing with water, 59.9 g of a solution with a dark brown-red colour are recovered.
8.11 g of FeCl3 hexahydrate are dissolved in 12 ml of water. The pH is adjusted to 7 by addition of a 50% by weight aqueous sodium hydroxide solution. After filtering and washing with water, less than 10 ppm of Fe are measured in the filtrate.
2.05 g (0.01 mol) of 5-chloro-2-hydroxymandelic acid are suspended in 15 ml of water. 0.8 g of 50% by weight sodium hydroxide solution (0.01 mol) is added in order to obtain a solution. 17.7 g of an aqueous solution comprising 2.7 g of FeCl3 hexahydrate (0.01 mol) are added over 15 min while maintaining the temperature of the reaction medium at approximately 20° C. The pH of the solution is adjusted to 7 by addition of 2.4 g of a 50% by weight aqueous sodium hydroxide solution. The mixture is subsequently stirred at ambient temperature for 24 h. After filtering, 35.1 g of a solution with a dark brown-red colour are recovered.
The procedure of Example 1 or 2 is repeated but using, according to the invention, the ligands B, C, D and E of formula (I), the structures of which are described in Table 1 below, and varying the ligand/metal molar ratios, if appropriate.
The procedure of Example 2 is repeated by using the compounds G, H, I and J as ligands, the structures of which are described in Table 4 below, and varying the ligand/metal molar ratios, if necessary.
The procedure described in Example 1 is repeated but adjusting the pH of the solution to 6, 7, 9, 10 and 12.
A solution composed of 40 g of water and of 12.97 g of FeCl3 hexahydrate (0.048 mol) is added over 15 min to 43.5 g of an aqueous solution comprising 10.2 g of OHM.2Na (0.048 mol) while maintaining the temperature of the reaction medium at approximately 20° C. The pH of the solution is adjusted to 7 by addition of a 50% by weight aqueous sodium hydroxide solution (5.1 g). The mixture is subsequently stirred at ambient temperature for 5 weeks without specific protection with regard to light. After filtering, 80 g of a solution with a dark brown-red colour are recovered.
1.98 g (0.01 mol) of OHMNa are dissolved in 8 ml of water.
12.7 g of an aqueous solution comprising 2.7 g of FeCl3 hexahydrate (0.01 mol) are added over 15 min while maintaining the temperature of the reaction medium at approximately 20° C. The pH of the solution is adjusted to 7 by addition of 2.3 g of a 50% by weight aqueous sodium hydroxide solution. A suspension of 1.0 g (0.01 mol) of CaCO3 in 15 g of water is subsequently added. A few drops of 37% HCl are added to adjust the pH to 7. The mixture is subsequently stirred at ambient temperature for 24 hours. After filtering, 35.0 g of a solution with a dark brown-red colour are recovered.

[2] = Dissolution of Mg(II) cations with OHM.2Na at pH 12; format: physicochemical; details: 0.05 mol OHM.2Na
Experimental: (§4) To an aqueous solution (60 g) containing 0.05 mol of OHM.2Na, are added 9.9 g of an aqueous solution containing 0.025 mole of magnesium chloride (MgCl2). The pH is set at 12 with 1 g of an aqueous solution of HCl 1N. […] Without the OHM.2Na, the magnesium precipitate at pH 12 as a white solid (Mg(OH)2).
as §4, with “added 19.8” for “added 9.9”, “containing 0.05” for “containing 0.025”, “with 2.6” for “with 1”, “of NaOH 30%.” for “of HCl 1N.”

[3] = Dissolution of Cr(III) cations with OHMNa; metal in filtrate by ICP-OES; format: physicochemical
Experimental: as §1, §2, §3
(§5) The procedure of Example 1 is repeated but substituting FeCl3 by AlCl3, CrCl3.6H2O and Cu(OAc)2.H2O respectively.

[4] = Dissolution of Cu(II) cations with OHMNa; metal in filtrate by ICP-OES; format: physicochemical
Experimental: as §1, §2, §3, §5

[5] = Dissolution of Al(III) cations with OHMNa; metal in filtrate by ICP-OES; format: physicochemical
Experimental: as §1, §2, §3, §5

[6] = background statement, on average; cited from earlier work
[7] = Iron content of the dried powder by ICP-OES; format: physicochemical; details: ICP-OES measurement on powder
Experimental: as §1
The dark brown-red solution obtained in Example 1 is concentrated by distillation of water. The residue is dried in an oven at 50° C. for 48 h. A red-brown powder is obtained which comprises 12% by weight of iron by ICP-OES measurement.
A measurement on a powder formed of [Fe(o,o-EDDHA)Na] chelate available commercially gives only 7.8% by weight of iron.

[8] = commercial chelates, background statement; cited from earlier work
[9] = pH 7, stirred 24 h at ambient temperature, filtrate
[10] = pH 7, total Fe introduced / weight of filtrate
[11] = Table 6, comparative ligands, pH 7
[12] = Table 6, pH 7, ligand/iron molar ratio of 2/1

SMILES: O=C(O)C(O)c1cc(Cl)ccc1O (stereo not shown) [5-chloro-2-hydroxymandelic acid]
- % by weight of Fe in solution measured [1, 9]: 1.3 % by weight
- Theoretical % by weight of Fe in solution [1, 10]: 1.59 % by weight

SMILES: O=C([O-])C(O)c1ccc(O)cc1.[Na+] (stereo not shown) [Example 3]
- % by weight measured (Fe in solution) ([1]; Table 3, ligands B-E, pH 7): 1.1 % by weight
- Theoretical % by weight of Fe in solution ([1]; Table 3, ligands B-E, pH 7): 1.47 % by weight

SMILES: CCOc1cc(C(O)C(=O)O)ccc1O (stereo not shown) [Example 4]
- % by weight measured (Fe in solution) ([1]; Table 3, ligands B-E, pH 7): 1.5 % by weight
- Theoretical % by weight of Fe in solution ([1]; Table 3, ligands B-E, pH 7): 1.83 % by weight

SMILES: O=C(O)C(O)c1ccc(O)c(O)c1 (stereo not shown) [Example 5]
- % by weight measured (Fe in solution) ([1]; Table 3, ligands B-E, pH 7): 1.2 % by weight
- Theoretical % by weight of Fe in solution ([1]; Table 3, ligands B-E, pH 7): 1.49 % by weight

SMILES: O=C(O)C(O)c1cc(F)ccc1O (stereo not shown) [Example 6]
- % by weight measured (Fe in solution) ([1]; Table 3, ligands B-E, pH 7): 1.4 % by weight
- Theoretical % by weight of Fe in solution ([1]; Table 3, ligands B-E, pH 7): 1.46 % by weight

SMILES: O=C([O-])C(O)c1ccccc1[O-].[Na+].[Na+] (stereo not shown) [OHM.2Na, disodium salt of 2-(2-hydroxyphenyl)-2-hydroxyacetic acid]
- state of the solution after 24 hours under stirring ([2]; 0.025 mole MgCl2): still homogeneous, without any solid
- state of the solution after 24 hours under stirring ([2]; 0.05 mole MgCl2): still homogeneous, without any solid
- Theoretical % by weight of Fe in solution ([1]; pH 7, 5 weeks stirring): 3.35 % by weight
- % by weight of Fe in solution measured ([1]; pH 7, stirred 5 weeks at ambient temperature without protection from light): 3.2 % by weight

SMILES: O=C([O-])C(O)c1ccccc1O.[Na+] (stereo not shown) [OHMNa, sodium salt of 2-(2-hydroxyphenyl)-2-hydroxyacetic acid]
- Theoretical % by weight of metal in solution ([3]; pH 7): 1.83 % by weight
- % by weight measured (metal in solution) ([3]; pH 7, 24 h): 1.40 % by weight
- Theoretical % by weight of metal in solution ([4]; pH 7): 1.43 % by weight
- % by weight measured (metal in solution) ([4]; pH 7, 24 h): 1.40 % by weight
- Theoretical % by weight of metal in solution ([5]; pH 7): 1 % by weight
- % by weight measured (metal in solution) ([5]; pH 7, 24 h): 1 % by weight
- % by weight measured (Fe in solution) ([1]; OHMNa, pH 6): 1.7 % by weight
- Theoretical % by weight of Fe in solution ([1]; OHMNa, pH 6): 2.18 % by weight
- % by weight measured (Fe in solution) ([1]; OHMNa, pH 7): 2.3 % by weight
- Theoretical % by weight of Fe in solution ([1]; OHMNa, pH 7): 2.33 % by weight
- % by weight measured (Fe in solution) ([1]; OHMNa, pH 9): 1.9 % by weight
- Theoretical % by weight of Fe in solution ([1]; OHMNa, pH 9): 1.96 % by weight
- % by weight measured (Fe in solution) ([1]; OHMNa, pH 10): 2.7 % by weight
- Theoretical % by weight of Fe in solution ([1]; OHMNa, pH 10): 2.80 % by weight
- % by weight measured (Fe in solution) ([1]; OHMNa, pH 12): 1.9 % by weight
- Theoretical % by weight of Fe in solution ([1]; OHMNa, pH 12): 1.92 % by weight
- Theoretical % by weight of Fe in solution ([1]; pH 7, in the presence of CaCO3): 1.59 % by weight
- % by weight of Fe in solution measured ([1]; pH 7, in the presence of CaCO3 (0.01 mol), 24 hours): 1.4 % by weight
- % by weight of Fe in solution measured [1, 9]: 2.3 % by weight
- Theoretical % by weight of Fe in solution [1, 10]: 2.33 % by weight

SMILES: O=C(O)C(NCCNC(C(=O)O)c1ccccc1O)c1ccccc1[O-].[Fe].[Na+] (stereo not shown) [[Fe(o,o-EDDHA)Na]]
- level of iron of commercial chelates [6]: ~6 % by weight
- % by weight of iron in the powder [7]: 7.8 % by weight
- solubility in water [8]: 150-300 g/l of water

SMILES: O.O.O.O.O.O.[Cl-].[Cl-].[Cl-].[Fe+3] [compound 1, FeCl3 hexahydrate, reference compound]
- Fe measured in the filtrate ([1]; FeCl3 hexahydrate without ligand, pH 7): less than 10 ppm

SMILES: O=C(O)Cc1ccccc1O [compound 2, reference compound]
- % by weight measured (Fe in solution) [1, 11]: <0.0025 % by weight
- Theoretical % by weight of Fe in solution [1, 11]: 2.88 % by weight
- % by weight measured (Fe in solution) [1, 12]: 0.01 % by weight
- Theoretical % by weight of Fe in solution [1, 12]: 1.67 % by weight
- dissolution of iron in aqueous solution at pH 7 (in words) ([1]; pH 7): do not make possible or make possible only to a very slight extent the dissolution of iron

SMILES: O=C(O)C(=O)c1ccccc1O [compound 3, reference compound]
- % by weight measured (Fe in solution) [1, 11]: 0.5 % by weight
- Theoretical % by weight of Fe in solution [1, 11]: 4.09 % by weight
- dissolution of iron in aqueous solution at pH 7 (in words) ([1]; pH 7): do not make possible or make possible only to a very slight extent the dissolution of iron

SMILES: O=C(O)C(O)c1ccccc1 (stereo not shown) [compound 4, reference compound]
- % by weight measured (Fe in solution) [1, 11]: 0.09 % by weight
- Theoretical % by weight of Fe in solution [1, 11]: 2.38 % by weight
- dissolution of iron in aqueous solution at pH 7 (in words) ([1]; pH 7): do not make possible or make possible only to a very slight extent the dissolution of iron

SMILES: O=C(O)C(O)c1ccccc1Cl (stereo not shown) [compound 5, reference compound]
- % by weight measured (Fe in solution) [1, 11]: 0.01 % by weight
- Theoretical % by weight of Fe in solution [1, 11]: 4.73 % by weight
- dissolution of iron in aqueous solution at pH 7 (in words) ([1]; pH 7): do not make possible or make possible only to a very slight extent the dissolution of iron
